Literature values as cited in patent publication US20250090614A1, “COMPOSITIONS AND METHODS FOR IMPROVING LUNG FUNCTION” (priority 2023, published 2025).

Assays:
[1] = tested on: Idiopathic pulmonary fibrosis (IPF); conditions: Dasatinib and Quercetin given together, pilot study, Justice et al. 2019; cited from earlier work
senescent lung cells = conditions: mouse model, Palazzo et al. 2023; cited from earlier work

SMILES	physical dysfunction in Idiopathic pulmonary fibrosis (IPF) [1]	lung emphysema (senescent lung cells)	senescent lung cells (senescent lung cells)
O=c1c(O)c(-c2ccc(O)c(O)c2)oc2cc(O)cc(O)c12 [Quercetin]	showed promise	–	–
COC(=O)C1=C(C)NC(C)=C(C(=O)OC2CCCN(Cc3ccccc3)C2)C1c1cccc([N+](=O)[O-])c1 (stereo not drawn) [Benidipine]	–	ameliorates	decrease
